Series [1] has as its system six melanoma T1799 mutant BRAF cell lines. The series is described as follows: CellTiter-Glo proliferation assay, panel summary. The class given is cell-based. The note with it: absence of FGF2, read-out: IC50 values, range over cell lines. Here is the method: All cell lines were purchased from ATTC (SK-MEL-5, SK-MEL-24, UACC-62, COLO 741, COLO-800, WM-266-4, Colo205, LS411N, SW 1417), ECACC (MDST8), DSMZ (CL-34) and NCI (LOX IMVI). […] Cell lines were cultured in 37° C. and 5% CO2 incubator and expanded in T-75 flasks. In all cases cells were thawed from frozen stocks, expanded through passage using 1:3 dilutions, counted and assessed for viability using a ViCell counter (Beckman-Coulter), prior to plating in 96-well or 6-well plates. To split and expand cell lines, cells were dislodged from flasks using 0.25% Trypsin-EDTA (GIBCO, Catalog number 25200). All cell lines were determined to be free of mycoplasma contamination as determined by a PCR detection methodology performed at Idexx Radii (Columbia, Mo., USA) and correctly identified by detection of a panel of SNPs. […]
For CellTiter-Glo™ assays, cells were dispensed into tissue culture treated 96-well plates (Costar, catalog number 3904) with a final volume of 80 μL of medium and at density of 3000 cells per well. […] Plates were incubated for 72 hrs and the effects of compounds on cell proliferation was determined using the CellTiter-Glo™ Luminescent Cell Viability Assay (CTG, Promega) and a Victor™ X4 plate reader (Perkin Elmer). […] Cells were continuously monitored every two hours for seven days with the xCELLigence real-time impedance based cell analyzer. […]
In general terms: Cellular ATP, detected with luciferase, serves as a proxy for viable cell number.

Another series relates to SK-MEL-5. The series is described as follows: CellTiter-Glo proliferation assay 72 hrs, with or without FGF2. The class given is cell-based. Particulars: Homo sapiens. As to the method:
(§1) All cell lines were purchased from ATTC (SK-MEL-5, SK-MEL-24, UACC-62, COLO 741, COLO-800, WM-266-4, Colo205, LS411N, SW 1417), ECACC (MDST8), DSMZ (CL-34) and NCI (LOX IMVI). […] Cell lines were cultured in 37° C. and 5% CO2 incubator and expanded in T-75 flasks. In all cases cells were thawed from frozen stocks, expanded through passage using 1:3 dilutions, counted and assessed for viability using a ViCell counter (Beckman-Coulter), prior to plating in 96-well or 6-well plates. To split and expand cell lines, cells were dislodged from flasks using 0.25% Trypsin-EDTA (GIBCO, Catalog number 25200). All cell lines were determined to be free of mycoplasma contamination as determined by a PCR detection methodology performed at Idexx Radii (Columbia, Mo., USA) and correctly identified by detection of a panel of SNPs.
(§2) The Compound of Formula (I) and Compound H dissolved in 100% DMSO (Cellgro, catalog number 25-290-CQC) at concentrations of 10 mM and stored at −20° C. until use. Compounds were arrayed in 2 ml deep 96-well plates (Greiner bio-one, catalog number 780271) serially diluted 3-fold seven times yielding concentration ranges from 22 nM to 16200 nM. Recombinant Human FGF basic was purchased from R&D system (Catalog number 233-FB), and reconstituted at 50 μg/ml in sterile PBS. It was used at a fixed concentration 100 ng/ml in all experiments.
(§3) For CellTiter-Glo™ assays, cells were dispensed into tissue culture treated 96-well plates (Costar, catalog number 3904) with a final volume of 80 μL of medium and at density of 3000 cells per well. 12 to 24 hrs after plating, 20 μL of each compound dilution series were transferred to plates containing the cells, resulting in compound concentration ranges of 2700 nM to 3.7 nM by 3-fold dilutions and a final DMSO concentration of 0.16%. The total volume in each well was […]. Plates were incubated for 72 hrs and the effects of compounds on cell proliferation was determined using the CellTiter-Glo™ Luminescent Cell Viability Assay (CTG, Promega) and a Victor™ X4 plate reader (Perkin Elmer). For real-time growth assays cells were seeded into xCELLigence E-plates (Roche catalogue number 05232368001) at a density of 4000 cells per well in a total of 90 μl of media and 24 hrs after plating, 11 μl of media with or without compound was added to the wells. 2-4 replicate wells were plated for all cell lines and treatment groups with the exception of LGX818+FGF2 treated COLO 741 cells (N=1). Where indicated final concentrations of compounds and growth factor were 1 uM for Compound H, 100 ng/ml for FGF2, and either 100 nM (SK-MEL-5) or 500 nM (COLO 741) for the Compound of Formula (I). Cells were continuously monitored every two hours for seven days with the xCELLigence real-time impedance based cell analyzer. Impedance was measured using the electrodes on the E-plates, with increasing surface area coverage of cells creating greater electrode impedance. […] In all cases cell index values were normalized to a timepoint immediately following the addition of compound.
(§4) To determine whether FGFRs can rescue a subset of BRAFV600E mutant melanoma cell lines treated with the Compound of Formula (I), its anti-proliferative effects were examined in eleven T1799 mutant BRAF cell lines either in the presence or absence of the FGFR-activating ligand FGF2. […] Thus, the presence of FGF2 is able to rescue a set of BRAFV600E melanoma-derived cell lines from the anti-proliferative effects of the B-Raf inhibitor of Formula (I). Furthermore, similar effects are also observed in BRAFV600E mutant cell lines derived from CRC tumors.
(§5) Mutant (mut) and wildtype (wt) status was determined from published data. […] PTEN mut designations represent a summary call based on mutation, gene copy number, and mRNA expression information for the PTEN gene.

For a further series, the system named is COLO 205. Described as above. The class given is cell-based. Particulars: Homo sapiens. As to the method: as §1, §2, §3, §4, §5
For the next series, the system named is SK-MEL-24. The series is described as above. The class given is cell-based. Particulars: Homo sapiens. Here is the method:
as §1, §2, §3, §4, §5

For the next series, the system named is SW1417. Described as above. The note with it: Homo sapiens. The class given is cell-based. As to the method: as §1, §2, §3, §4, §5
The test system of the next series is WM-266-4. Described as above. Particulars: Homo sapiens, WM-266-4 (V600D). The class given is cell-based. As to the method: as §1, §2, §3, §4, §5
A further series has as its system CL-34. The series is described as above. The class given is cell-based. As to the method:
as §1, §2, §3, §4, §5

A further series deals with COLO 741. Described as above. The class given is cell-based. The note with it: Homo sapiens. Here is the method: as §1, §2, §3, §4, §5
Another series has as its system UACC-62. The series is described as above. The class given is cell-based. The note with it: Homo sapiens. As to the method: as §1, §2, §3, §4, §5
In a further series the test system is LS411N. The description is as above. The class given is cell-based. Particulars: Homo sapiens, LS-411N. Here is the method: as §1, §2, §3, §4, §5
The nature of series [2]: Clinical dose finding and tolerability (RP2D/MTD) in patients. The class given is in vivo. An excerpt:
The selection of the starting dose follows the ICH S9 guidelines for choosing a starting a dose for a first-in-human trial conducted in patients with cancer, and is shown in Table 6-2.
Table 3 describes the starting doses and the provisional dose levels of study treatments for the combinations that may be evaluated during this trial. Additional dose levels not currently specified may be enrolled and additional patients may be enrolled at a dose level already tested if such changes are deemed necessary to provide optimal safety and tolerability, pharmacokinetic, and pharmacodynamic data.

Setting [3] is: with 100 ng/ml FGF2, read-out: LGX818 + FGF2 IC50.
[4] abbreviates: without FGF2, read-out: LGX818 IC50.

This note sets out measurements from US10548894B2, “Combination therapy” (Array BioPharma Inc., priority 2013, dated 2020).

Each structure is given as a SMILES string. Where two headings read alike, the source gives them in different places.

On to `COC(=O)N[C@@H](C)CNc1nccc(-c2cn(C(C)C)nc2-c2cc(Cl)cc(NS(C)(=O)=O)c2F)n1` [Compound of Formula (I)], for which the half-maximal inhibitory concentration (IC50) was 3 to 470 nM in series [1]; > 1000 nM in the series on SK-MEL-5 (SK-MEL-5, with 100 ng/ml FGF2, read-out: LGX818 + FGF2 IC50); 15 nM in the series on SK-MEL-5 (SK-MEL-5, without FGF2, read-out: LGX818 IC50); 5 nM in the series with COLO 205 (Colo 205, with 100 ng/ml FGF2, read-out: LGX818 + FGF2 IC50); 4 nM in the series with COLO 205 (Colo 205, without FGF2, read-out: LGX818 IC50); 369 nM in the series on SK-MEL-24 (SK-MEL-24, with 100 ng/ml FGF2, read-out: LGX818 + FGF2 IC50). Also, the IC50 with SK-MEL-24 (SK-MEL-24, without FGF2, read-out: LGX818 IC50) worked out at 470 nM; in the series on SW1417 (SW1417, with 100 ng/ml FGF2, read-out: LGX818 + FGF2 IC50), 364 nM; in the series on SW1417 (SW1417, without FGF2, read-out: LGX818 IC50), 165 nM; with WM-266-4 (setting [3]) it was 4 nM; with WM-266-4 (setting [4]), 3 nM; with CL-34 (CL-34, without FGF2, read-out: LGX818 IC50), 38 nM. Besides, the IC50 is 730 nM in the series on CL-34 (read-out: LGX818 + FGF2 IC50); 2650 nM with COLO 741 (COLO 741, with 100 ng/ml FGF2, read-out: LGX818 + FGF2 IC50); 53 nM in the series with COLO 741 (COLO 741, without FGF2, read-out: LGX818 IC50); 4 nM with UACC-62 (UACC-62, with 100 ng/ml FGF2, read-out: LGX818 + FGF2 IC50); 2 nM in the series with UACC-62 (UACC-62, without FGF2, read-out: LGX818 IC50); ≥ 9230 nM in the series on LS411N (setting [3]). For the same compound, the IC50 in the series on LS411N (setting [4]) came to 185 nM. For the same compound, the observed adverse events result in series [2] (in clinic, tested at up to 700 mg QD) is “reversible and manageable”. Further, the “RP2D (recommended phase II dose)” value in [2] (single agent, patients) is listed as 450 mg QD.

For orientation: IC50 means the concentration needed to halve the response being measured.
